Reference: PubChem BioAssay AID1949 (Southern Research Institute, 2009)
Values after ≈ are worked out from the molar mass of the structure shown. Results filed as inconclusive are left out. Active and inactive are the calls of the source. The rule behind the calls is not given here.

tested on: M. tuberculosis H37Rv growth inhibition; experiment: Mycobacterium tuberculosis H37Rv growth inhibition, cell based, confirmatory dose response (AID 1949);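 note: bacteria grown 7 days with compound before Alamar blue readout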

Compared with `Cc1nn(-c2ccccc2)c(C)c1N1C(=O)c2cccc3cc([N+](=O)[O-])cc(c23)C1=O`, `COc1ccccc1C1=Nc2cccc3cccc(c23)N1` is 1.6-fold higher in IC50: 0.15 µg/mL (≈ 0.364 µM) for the first, 0.24 µg/mL (≈ 0.875 µM) for the second.

Compared with `COc1cccc(C(=O)OCc2cccc(C(=O)Oc3ccccc3)c2)c1`, `COc1ccccc1-c1coc2cc(OCC(=O)OCc3ccccc3)ccc2c1=O` is 26-fold lower in IC50: 9.15 µg/mL (≈ 25.2 µM) for the first, 0.35 µg/mL (≈ 0.84 µM) for the second.

`CCc1ccc(C2=CC(=O)c3ccccc3C2=O)cc1` and `Cc1ccc(N2C(=O)CC(Sc3ccccc3C(=O)Nc3ccccc3)C2=O)cc1` (centres undefined) are within 1.5-fold of each other in IC50: 5.94 µg/mL (≈ 22.6 µM) for the first, 4.92 µg/mL (≈ 11.8 µM) for the second.

First: O=C(CSc1nnc(-c2ccccc2)o1)Nc1ccc2ccccc2c1
Second: O=C(CCSc1nnc(-c2ccccc2)o1)Nc1ccc(F)cc1
The IC50 of the first is 5.1-fold lower: 1.02 µg/mL (≈ 2.82 µM) for the first, 5.2 µg/mL (≈ 15.1 µM) for the second.

First: CC1(C)CC(=O)C2=C(C1)NC(Nc1nc3ccccc3o1)=NC2c1cccc(Br)c1 (centres undefined)
Second: O=S(=O)(CCSc1nc2ccccc2o1)c1nc2ccccc2s1
The IC50 of the first is 3.4-fold lower: 3.24 µg/mL (≈ 6.96 µM) for the first, 11.1 µg/mL (≈ 29.5 µM) for the second.

`COc1ccc(-c2nn(-c3ccccc3)cc2CNCc2ccccc2)cc1` and `CC(NCc1cccc(OCc2ccccc2)c1)C(O)c1ccccc1` (centres undefined) are within 1.5-fold of each other in IC50: 6.04 µg/mL (≈ 16.3 µM) for the first, 5.53 µg/mL (≈ 15.9 µM) for the second.

Compared with `O=C(CC12CC3CC(CC(C3)C1)C2)NC(=S)Nc1ccc(-c2nc3ccccc3[nH]2)cc1`, `O=C(NC1CC1c1ccccc1)C12CC3CC(CC(C3)C1)C2` (centres undefined) is 10-fold higher in IC50: 1.46 µg/mL (≈ 3.28 µM) for the first, 14.6 µg/mL (≈ 49.5 µM) for the second.

Going from `Cc1cccc(C)c1OCC(=O)N/N=C/c1ccc(O)c([N+](=O)[O-])c1` to `Cc1ccc(OCC(=O)c2ccc(F)cc2)cc1C`, the IC50 rises from 0.36 µg/mL (≈ 1.05 µM) to 2.46 µg/mL (≈ 9.52 µM) (6.8-fold).

`Fc1ccc(C2=NN(c3ccc(Cl)cc3)C(c3cccs3)C2)cc1` (centres undefined) and `O=C(c1cccc(Cl)c1)N1N=C(c2ccc(Cl)cc2)CC1(O)C(F)(F)F` (centres undefined) are within 1.5-fold of each other in IC50: 5.63 µg/mL (≈ 15.8 µM) for the first, 3.82 µg/mL (≈ 9.47 µM) for the second.

First: CN1CCN(c2ccc(NC(=S)NC(=O)c3cc4ccccc4o3)cc2)CC1
Second: COc1cc2c(cc1NC(=O)Nc1ccc(Cl)cc1)oc1ccccc12
The IC50 of the first is 8-fold higher: 10.7 µg/mL (≈ 27.2 µM) for the first, 1.33 µg/mL (≈ 3.63 µM) for the second.

Going from `CCOc1ccc(C(=O)Nc2ccc(N3CCN(C(=O)c4cccs4)CC3)c(Cl)c2)cc1Br` to `CC(C)(C)c1ccc(C(=O)Nc2cccc(NC(=O)c3cccs3)c2)cc1`, the IC50 rises from 0.53 µg/mL (≈ 0.966 µM) to 2.28 µg/mL (≈ 6.02 µM) (4.3-fold).

First: CC(=O)Oc1cc(C)cc2oc(=O)c3c(c12)CCCC3
Second: Cc1cc(C)n(-c2nc3sc4c(c3c(=O)[nH]2)CCCC4)n1
The IC50 of the first is 6.3-fold lower: 3.85 µg/mL (≈ 14.1 µM) for the first, 24.4 µg/mL (≈ 81.1 µM) for the second.

Compared with `Clc1ccc(COc2ccc3ccccc3c2CNCc2cccnc2)c(Cl)c1`, `COc1cc(CNCc2cccnc2)ccc1OCc1ccc(Cl)cc1Cl` is 3.1-fold higher in IC50: 2.7 µg/mL (≈ 6.38 µM) for the first, 8.24 µg/mL (≈ 20.4 µM) for the second.

First: O=C(CNS(=O)(=O)c1ccc([N+](=O)[O-])cc1)OCc1c(F)cccc1Cl
Second: Cc1ccc(C(=O)Nc2ccc([N+](=O)[O-])cc2)s1
The IC50 of the first is higher: 17.3 µg/mL (≈ 43 µM) for the first, less than 0.1 µg/mL for the second.

Compared with `CCC(C)c1ccccc1OCC(=O)Nc1cccc(-c2nnc(-c3ccco3)o2)c1` (centres undefined), `O=C(c1ccc(Cl)cc1)c1ccc(CSc2nnc(-c3ccccc3)o2)o1` is lower in IC50: 8.07 µg/mL (≈ 19.3 µM) for the first, less than 0.1 µg/mL for the second.

Going from `O=C1NN=C2C1=NC1(CCCCC1)Cc1ccccc12` to `COc1ccccc1-c1coc2cc(OCC(=O)OC3CCCCC3)ccc2c1=O`, the IC50 rises from 0.1 µg/mL (≈ 0.374 µM) to 0.24 µg/mL (≈ 0.588 µM) (2.4-fold).

Compared with `CC(=O)Oc1cccc2ccc(/C=C/c3ccc(F)cc3)nc12`, `O=C(/C=C/c1cccc(C(F)(F)F)c1)Nc1ccc(Cl)cc1` is higher in IC50: less than 0.1 µg/mL for the first, 5.09 µg/mL (≈ 15.6 µM) for the second.

First: CCOC(=O)COc1ccc(C(=O)Nc2cccc(Cl)c2C)cc1
Second: CCOC(=O)COc1ccc(-c2ccc(C)cc2)cc1
The IC50 of the first is lower: less than 0.1 µg/mL for the first, 0.33 µg/mL (≈ 1.22 µM) for the second.

First: CC(C)OC(=O)COc1ccc(C(=O)NCc2ccccc2)cc1
Second: N#Cc1cc(Oc2ccc(OCc3ccccc3)cc2)c([N+](=O)[O-])cc1C#N
The IC50 of the first is higher: 0.91 µg/mL (≈ 2.78 µM) for the first, less than 0.1 µg/mL for the second.

First: Cn1nc([N+](=O)[O-])nc1Sc1ncnn1-c1ccccc1
Second: Cc1cc(Oc2nc([N+](=O)[O-])nn2C)ccc1Cl
The IC50 of the first is 2-fold lower: 2.98 µg/mL (≈ 9.83 µM) for the first, 5.88 µg/mL (≈ 21.9 µM) for the second.

First: CC1CCCN(CCC(=O)c2ccc(Br)cc2)C1 (centres undefined)
Second: CC(NC(=O)c1ccc(Br)cc1)c1ccc2c(c1)OCCO2 (centres undefined)
The IC50 of the first is 2.1-fold lower: 2.8 µg/mL (≈ 9.03 µM) for the first, 5.81 µg/mL (≈ 16 µM) for the second.

`CC(=O)c1cccc(Nc2nc(-c3ccccn3)cs2)c1` and `COc1ccc(CCNc2nc(-c3ccccn3)cs2)cc1OC` are within 1.5-fold of each other in IC50: 0.98 µg/mL (≈ 3.32 µM) for the first, 0.72 µg/mL (≈ 2.11 µM) for the second.

Compared with `COc1ccc(S(=O)(=O)Nc2cc(Sc3ccccc3)c(O)c3ccccc23)cc1`, `COc1ccccc1NC(=O)C1=C(C)NC(SCC(=O)Nc2ccccc2[N+](=O)[O-])=C(C#N)C1c1ccccc1F` (centres undefined) is 2.3-fold higher in IC50: 5.29 µg/mL (≈ 12.1 µM) for the first, 12 µg/mL (≈ 21 µM) for the second.

`Cc1ccc(-c2csc(-c3ccncc3)n2)cc1C` and `Cc1ccc(Nc2ccc(-n3ccnc3)nn2)cc1Cl` are within 1.5-fold of each other in IC50: 1.85 µg/mL (≈ 6.95 µM) for the first, 2.67 µg/mL (≈ 9.34 µM) for the second.

Compared with `CCOC(=O)c1cc(-c2ccccc2)sc1NC(=S)NC1CCN(Cc2ccccc2)CC1`, `c1ccc(CN2CCN(CCCOc3cccc4ccccc34)CC2)cc1` is 6.1-fold higher in IC50: 0.77 µg/mL (≈ 1.61 µM) for the first, 4.68 µg/mL (≈ 13 µM) for the second.

Compared with `COc1ccccc1-n1c(=O)oc2ccc(Cl)cc2c1=O`, `Cc1ccc2oc(=O)n(CCCOc3ccc(Cl)cc3)c2c1` is 1.7-fold lower in IC50: 4.95 µg/mL (≈ 16.3 µM) for the first, 2.98 µg/mL (≈ 9.38 µM) for the second.

First: O=C(CN1CCN(CCN2C(=O)c3cccc4cccc(c34)C2=O)CC1)c1ccc(Cl)cc1
Second: O=C(CSc1ccc(Cl)cc1)Nc1ccc(Br)cn1
The IC50 of the first is 2.2-fold higher: 6.6 µg/mL (≈ 14.3 µM) for the first, 3.02 µg/mL (≈ 8.44 µM) for the second.

Going from `CCCNC(=S)NC(=O)c1ccc(C(C)(C)C)cc1` to `COC(=O)CSc1nnc(NC(=O)c2ccc(C(C)(C)C)cc2)s1`, the IC50 falls from 17 µg/mL (≈ 61 µM) to less than 0.1 µg/mL.

First: Cc1ccc(OC(F)F)c(NC(=O)Nc2ccc([N+](=O)[O-])cc2)c1
Second: CCOC(=O)c1ccc(NC(=S)Nc2cc(Cl)c(Cl)cc2Cl)cc1
The IC50 of the first is 8.2-fold higher: 22.4 µg/mL (≈ 66.5 µM) for the first, 2.72 µg/mL (≈ 6.74 µM) for the second.

`N#Cc1cc2c(nc1SCC(=O)OCc1ccccc1)CCC2` and `CSc1nsc(SCC(=O)N2CCN(c3ccccc3)CC2)n1` are within 1.5-fold of each other in IC50: 0.41 µg/mL (≈ 1.26 µM) for the first, 0.35 µg/mL (≈ 0.955 µM) for the second.

`CC1=CC(C)(C)Nc2ccc(OC(=O)c3cccnc3)cc21` and `CC1=CC(C)(C)Nc2ccc(OC(=O)c3cccs3)cc21` are within 1.5-fold of each other in IC50: 2.88 µg/mL (≈ 9.78 µM) for the first, 3.02 µg/mL (≈ 10.1 µM) for the second.

First: CCOC(=O)COc1ccc2cc(-c3nc4ccccc4o3)c(=O)oc2c1
Second: Cc1ccccc1OCCOc1cccc(C=O)c1
The IC50 of the first is 2.1-fold lower: 3.3 µg/mL (≈ 9.03 µM) for the first, 6.79 µg/mL (≈ 26.5 µM) for the second.

First: CCOC(=O)COc1ccc2c(C)c(CC(=O)OC)c(=O)oc2c1C
Second: CC(C)c1ccc(OCC(=O)NNC(=S)NC(=O)c2ccco2)c(Br)c1
The IC50 of the first is 29-fold higher: 7.36 µg/mL (≈ 21.1 µM) for the first, 0.25 µg/mL (≈ 0.568 µM) for the second.

Going from `CC(C)(C)NC(=O)c1cc2cc([N+](=O)[O-])ccc2oc1=O` to `COC(=O)C1=C(C)N(c2ccc(F)c(Cl)c2)C(=O)C1`, the IC50 rises from 1.48 µg/mL (≈ 5.1 µM) to 13.5 µg/mL (≈ 47.4 µM) (9.1-fold).

`C=CCNCCCCOc1ccc(Cl)cc1C(C)(C)C` and `COCCNCCCCOc1ccc(Cl)cc1C(C)(C)C` are within 1.5-fold of each other in IC50: 4.64 µg/mL (≈ 15.7 µM) for the first, 4.62 µg/mL (≈ 14.7 µM) for the second.

First: O=[N+]([O-])/C=C/c1ccccc1OCc1cccc(F)c1
Second: O=[N+]([O-])c1c(Sc2ncnc3ccccc23)ccc2nsnc12
The IC50 of the first is 3.5-fold lower: 6.26 µg/mL (≈ 22.9 µM) for the first, 22.2 µg/mL (≈ 65.1 µM) for the second.

First: COc1cccc(C2=CC(c3c(F)cccc3Cl)n3nnnc3N2)c1 (centres undefined)
Second: CCn1c(-c2ccco2)nc2ccccc21
The IC50 of the first is 3.2-fold higher: 7.55 µg/mL (≈ 21.1 µM) for the first, 2.39 µg/mL (≈ 11.3 µM) for the second.

Going from `CC(C)C1C(c2ccccc2)NC(c2ccccc2)CC1(O)C#Cc1ccccc1` (centres undefined) to `N#Cc1c(NC(=S)NC(=O)c2ccc(Cl)cc2Cl)sc2c1CCCCC2`, the IC50 falls from 9.22 µg/mL (≈ 23.3 µM) to 3.36 µg/mL (≈ 7.92 µM) (2.7-fold).

For `CCOc1ccc(C(=O)NC23CC4CC(CC(C4)C2)C3)cc1[N+](=O)[O-]`, the IC50 was > 50 µg/mL (inactive).
`CC1CCC(C(=O)c2c(O)c3ccccc3oc2=O)CC1` (centres undefined) was tested, and the IC50 was > 50 µg/mL (inactive).
`CCc1cc2c(=O)oc(-c3ccc(F)cc3)nc2s1` was tested, and the IC50 was > 50 µg/mL (inactive).
`CN1CCN(c2ccc(NC(=O)c3ccc(Cl)c(Cl)c3)cc2)CC1` was tested, and the IC50 was > 50 µg/mL (inactive).
For `COC(=O)c1ccc(OCC(=O)c2ccc(F)cc2)cc1`, the IC50 was > 50 µg/mL (inactive).
`Cc1ccc2nc(Cc3nc4ccc(C)cc4[nH]3)[nH]c2c1` was tested, and the IC50 was > 50 µg/mL (inactive).
With `Cc1ccc(C(C)C)c(OCCNCc2ccccc2)c1` the IC50 was > 50 µg/mL (inactive).
`Fc1cc(Br)cc2c1NC(c1cccnc1)C1CC=CC21` (centres undefined) was tested, and the IC50 was > 50 µg/mL (inactive).
